Where two headings read alike, the source gives them in different places. Blank lines part the entries; values can stand above or below the compound they belong to.
How the values were obtained:
[1] = Solubility of phenolic compounds and caffeine in water without hydrotropes; settings: for solubility: in water
Description: Baicalin, a component of Chinese medicinal herb Huang-chin, is a flavone, a type of flavonoid.

[2] = Oxygen Radical Absorbance Capacity (ORAC) assay; format: biochemical; settings: individual values, known activity of each antioxidant
[3] = HORAC assay (hydroxyl radical averting capacity); format: biochemical; settings: individual values, known activity of each antioxidant
[4] = Solubility of baicalin in organic solvent PEG-4; format: physicochemical
Description: Crystallization or precipitation occurs after mixing the glycol phase and water phase.

[5] = pH stability of baicalin in water; format: physicochemical
[6] = Solubility in water with hydrotropes (nicotinamide, caffeine); settings: 5% nicotinamide and 5% caffeine

Solubility in water without hydrotropes [1]: <0.05 % (w/w)
Compound: COc1ccc([C@@H]2CC(=O)c3c(O)cc(O[C@@H]4O[C@H](CO)[C@@H](O)[C@H](O)[C@H]4O[C@@H]4O[C@@H](C)[C@H](O)[C@@H](O)[C@H]4O)cc3O2)cc1O [Neohesperidin]

Solubility in water without hydrotropes [1]: <0.005 % (w/w)
Compound: Oc1ccc(C=Cc2cc(O)cc(O)c2)cc1 [Resveratrol]

Solubility in water without hydrotropes [1]: <0.001 % (w/w)
Compound: O=c1oc2c(O)c(O)cc3c(=O)oc4c(O)c(O)cc1c4c23 [Ellagic acid]

Compound: tocopherol [VIT. E (tocopherol)]
ORAC [2]: 1000 μmolTE/g

Compound: O=C(O)[C@H]1O[C@@H](Oc2cc3oc(-c4ccccc4)cc(=O)c3c(O)c2O)[C@H](O)[C@@H](O)[C@@H]1O [Baicalin]
solubility in water ([1]; at its natural pH ~4.5): < 0.01% | solubility ([1]; pH 3): 0.0016% | solubility ([1]; pH 3.5): 0.0021% | solubility ([1]; pH 4): 0.0040% | solubility ([1]; pH 4.5): 0.0084% | solubility ([1]; pH 5): 0.035% | water solubility ([1]; no hydrotrope): < 0.01% | Solubility in water without hydrotropes ([1]; without hydrotropes): <0.01 % (w/w) | HORAC [3]: 2592 μmolGAE/g | baicalin dissolved by PEG-4 [4]: 3% | pH at which degradation happens [5]: > 5 | ORAC [2]: 4759 μmolTE/g

Solubility in water without hydrotropes ([1]; without hydrotropes): <0.1 % (w/w) | Solubility in water with hydrotropes [6]: >1 % (w/w)
Compound: O=C1c2c(O)cc(O)cc2O[C@H](c2ccc(O)c(O)c2)[C@H]1O [Taxifolin]

— US9669242B2, “Compositions containing at least two phenolic compounds, a lipid-soluble antioxidant and at least one hydrotrope for cosmetic use” (L'OREAL, priority 2013, dated 2017)
